Assay results: article PMC6154683, “High-Throughput Determination of Sodium Danshensu in Beagle Dogs by the LCMS/MS Method, Employing Liquid-Liquid Extraction Based on 96-Well Format Plates” (Molecules : A Journal of Synthetic Chemistry and Natural …, 2017)

Tests used:
[1] = Pharmacokinetic and bioavailability study in beagle dogs after intravenous and oral administration (plasma, LC-MS/MS); format: in vivo; settings: for C0: mean ± SD
Procedure: All the studies on animals were done in accordance with the Guidelines for the Care and Use of Laboratory Animals. Beagle dogs (~10 kg) were purchased from the Shanghai Slack Experimental Animal Co., Ltd. (Shanghai, China) and acclimated in the laboratory for 1 week prior to the experiments, housed in separate cages under room temperature with a 12 h light/dark cycle, and free access to standard diet and water. All the beagle dogs were fasted for 12 h before the experiments with free access to water.
For pharmacokinetics study, 24 beagle dogs were randomly divided into four groups (n = 6). Four different dosages (5 mg/kg, 10 mg/kg, 15 mg/kg I.V., 60 mg/kg P.O.) were designed and were assigned randomly to the four groups of beagle dogs. Blood samples (500 μL) were withdrawn from the foreleg vein into heparinized tubes in strict accordance with the time points of the protocol made in advance. Then after centrifuging at 8000 rpm for 10 min, the supernatant plasma sample was transferred into another tube and frozen at −80 °C until analysis. The time points for blood sampling were listed as follows. Pre-dose and subsequently at 0, 0.03, 0.08, 0.17, 0.33, 0.67, 1, 1.5, 2, 3, 4, 6, 8, and 12 h were used for the three intravenous injection groups, and pre-dose, 0.08, 0.17, 0.25, 0.5, 0.75, 1, 1.5, 2, 3, 4, 6, 8, and 12 h were used for the oral administration group.
For plasma sample preparation, the LLE in 96-well format plate was used. Prior to analysis, all frozen plasma samples, calibration standards, and quality control samples were thawed and allowed to equilibrate at room temperature. The samples were vortexed adequately using a vortex mixer (Beijing Targintech Co. Ltd., Beijing, China) before pipetting. Samples were prepared using LLE in 96-well deep format plate (2 mL, Corning Life Sciences—Axygen Inc., Union City, CA, USA). An automatic multichannel pipette (INTEGRA Biosciences AG, Zizers, Switzerland) was used for liquid transfer steps. Aliquots of 100 μL plasma were transferred into the 96-well deep format plate. Aliquots of 10 μL of IS solution (25 ng/mL) were added to each well except for the well designated for the double blank plasma. Then 20 μL of 2 mol/L hydrochloric acid was added to each well of the plate, and vortexed for 30 s for mixing. The mixed sample was then extracted with 1000 μL methyl tert-butyl ether by vortex-mixing for 3 min in a platform shaker (Grant, Cambridge, UK). After centrifugation at 12,000 rpm for 10 min, 800 μL of the upper organic layer was transferred from the original sample plates into the respective positions of the new 2.0 mL deep 96-well plates. Extracts were concentrated to dryness by an automated concentration evaporation system at 30 °C under a gentle stream of nitrogen (Turbo Vap 96, Biotage AB, Uppsala, Sweden) for 15 min. After drying, the residue was reconstituted with 100 μL of methanol–water (50:50, v/v) and was then vortexed for 3 min and centrifuged for 10 min at 12,000 rpm. A 5 μL aliquot of the supernatant was injected into the LC-MS/MS system for analysis.
The pharmacokinetic analysis was performed using the non-compartmental model analysis. The concentration versus time data and the pharmacokinetic parameters including Cmax, t1/2, Tmax (h), AUC0-t, AUC0-12, MRT, CL, and Vd were assessed via non-compartmental analysis using the BAPP software (version 2.0, Center of Drug Metabolism and Pharmacokinetics, China Pharmaceutical University, Nanjing, china). The absolute bioavailability (%F) of sodium danshensu was estimated via AUC0→∞ values of oral and intravenous administration.

[2] = Stability of sodium danshensu in beagle dog plasma (QC samples); format: in vitro ADME; settings: for Measured (mean ± SD): n = 3; for long-term stability in plasma (in words): beagle dog plasma stored at −80 °C for 20 days
Procedure: The analyte stability determinations comprised ambient temperature stability, long-term stability, autosampler stability, and freeze-thaw cycle stability, which were evaluated by analyzing two QC levels in triplicate. The QC samples were analyzed after storage at room temperature for 2 h, at −80 °C for 20 days, and in the autosampler at room temperature for at least 24 h after extraction and after three freeze-thaw cycles, which consisted of storage at −80 °C for a minimum of 12 h followed by thawing at room temperature.

[3] = dog, plasma, IV 5 mg/kg, beagle dogs
[4] = dog, plasma, IV 10 mg/kg, beagle dogs
[5] = dog, plasma, IV 15 mg/kg, beagle dogs
[6] = dog, plasma, PO 60 mg/kg, beagle dogs

In the case of O=C([O-])[C@H](O)Cc1ccc(O)c(O)c1.[Na+] [sodium danshensu, sodium D-(+)-β-(3,4-dihydroxyphenyl) lactate], the AUC(0-inf) [1, 3] is reported as 6870 ± 780 ng·h/mL, the AUC(0-t) [1, 3] is reported as 6710 ± 810 ng·h/mL and the MRT [1, 3] is reported as 52.8 ± 24.6 min. The Vd [1, 3] was 6.63 ± 3.49 L, the clearance [1, 3] was 123 mL/min and the half-life [1, 3] was 138 ± 73.8 min. For the same compound, the C0 [1, 3] was 36600 ± 3840 ng/mL, the AUC(0-inf) [1, 4] was 8460 ± 430 ng·h/mL and the AUC(0-t) [1, 4] was 8270 ± 380 ng·h/mL. For the same compound, the MRT [1, 4] was 64.8 ± 31.8 min, the Vd [1, 4] was 12.8 ± 5.5 L and the clearance [1, 4] was 197 mL/min. It also gave a half-life [1, 4] of 139 ± 79.8 min, a C0 [1, 4] of 46700 ± 15200 ng/mL and an AUC(0-inf) [1, 5] of 17800 ± 3040 ng·h/mL. It also gave an AUC(0-t) [1, 5] of 17800 ± 3030 ng·h/mL, an MRT [1, 5] of 43.8 ± 3 min and a Vd [1, 5] of 6.36 ± 1.48 L. It also gave a clearance [1, 5] of 144 mL/min, a half-life [1, 5] of 98.4 ± 23.4 min and a C0 [1, 5] of 79200 ± 18900 ng/mL. It also gave an AUC(0-inf) [1, 6] of 22700 ± 2570 ng·h/mL, an AUC(0-t) [1, 6] of 22200 ± 2480 ng·h/mL and a Cmax [1, 6] of 7920 ± 1770 ng/mL. The MRT [1, 6] was 254 ± 12 min, the Tmax [1, 6] was 2.83 ± 0.41 h and the half-life [1, 6] was 110 ± 17.4 min. For the same compound, the bioavailability ([1]; dog, plasma, beagle dogs, estimated via AUC0→∞ of oral (60 mg/kg) and intravenous administration, read-out: mean absolute bioavailability (%F)) was 34.8%, the concentration at 1.5 h ([1]; one beagle dog plasma sample, 1.5 h after intravenous 10 mg/kg, read-out: assayed plasma concentration) was 930 ng/mL and the “RE (relative error vs spiked)” value ([2]; ambient temperature 2 h, spiked 20 ng/mL) was 5.0%. For the same compound, the “Measured (mean ± SD)” value ([2]; ambient temperature 2 h, spiked 20 ng/mL, beagle dog plasma) was 21.00 ± 1.42 ng/mL, the “RE (relative error vs spiked)” value ([2]; ambient temperature 2 h, spiked 800 ng/mL) was −3.6% and the “Measured (mean ± SD)” value ([2]; ambient temperature 2 h, spiked 800 ng/mL, beagle dog plasma) was 771.45 ± 23.94 ng/mL. The “Measured (mean ± SD)” value ([2]; autosampler 24 h (extracted samples), spiked 20 ng/mL) was 20.10 ± 1.22 ng/mL, the “Measured (mean ± SD)” value ([2]; autosampler 24 h (extracted samples), spiked 800 ng/mL) was 772.49 ± 29.64 ng/mL and the “RE (relative error vs spiked)” value ([2]; autosampler 24 h, spiked 20 ng/mL) was 0.5%. For the same compound, the “RE (relative error vs spiked)” value ([2]; autosampler 24 h, spiked 800 ng/mL) was −3.4%, the “long-term stability in plasma (in words)” value [2] was “stable” and the “long-term stability in plasma (in words)” value ([2]; listed as sodiusm danshensu) was “Excellent stability”. The “ambient temperature stability in plasma (in words)” value ([2]; beagle dog plasma, ambient temperature for 2 h) was “Excellent stability”, the “autosampler stability (in words)” value ([2]; extracted samples kept in the autosampler for 24 h) was “No degradation” and the “RE (relative error vs spiked)” value ([2]; long-term 20 days at −80 °C, spiked 20 ng/mL) was 2.5%. The “Measured (mean ± SD)” value ([2]; long-term 20 days at −80 °C, spiked 20 ng/mL, beagle dog plasma) was 20.50 ± 1.13 ng/mL, the “RE (relative error vs spiked)” value ([2]; long-term 20 days at −80 °C, spiked 800 ng/mL) was 3.1% and the “Measured (mean ± SD)” value ([2]; long-term 20 days at −80 °C, spiked 800 ng/mL, beagle dog plasma) was 825.29 ± 55.20 ng/mL. For the same compound, the “freeze-thaw stability, deviation of the concentration (in words)” value ([2]; three cycles of freezing and thawing) was “within the acceptable limit”, the “RE (relative error vs spiked)” value ([2]; three freeze-thaw cycles at −80 °C, spiked 20 ng/mL) was 7.2% and the “Measured (mean ± SD)” value ([2]; three freeze-thaw cycles at −80 °C, spiked 20 ng/mL, beagle dog plasma) was 21.45 ± 0.88 ng/mL. For the same compound, the “RE (relative error vs spiked)” value ([2]; three freeze-thaw cycles at −80 °C, spiked 800 ng/mL) was −0.2% and the “Measured (mean ± SD)” value ([2]; three freeze-thaw cycles at −80 °C, spiked 800 ng/mL, beagle dog plasma) was 798.54 ± 47.76 ng/mL.
